Consider 23 molecules from BindingDB's records for doi:10.1021/jm00081a009 (Glaxo Group Research, 1992).

The nature of the first assay: Kappa-opioid receptor agonist potency in vitro using rabbit vas deferens(LVD) preparation.
Usually IC50 stands for the concentration that inhibits the measured activity by half. Higher therefore signals lower potency. The molecule `NC(=O)[C@@H]1CCN(C(=O)Cc2ccc(Cl)c(Cl)c2)[C@H](CN2CCCC2)C1` registered an IC50 of 1200 nM.

For the molecule `O=C(Cc1ccc(Cl)c(Cl)c1)N1CC2(CC[C@H]1CN1CCCC1)OCCO2`, the IC50 is 160 nM.

`COC(=O)[C@H]1CC[C@@H](CN2CCCC2)N(C(=O)Cc2ccc(Cl)c(Cl)c2)C1` registered an IC50 of 300 nM. This IC50 is about 1.9-fold higher than that of the molecule before.

With `NC(=O)[C@H]1CC[C@@H](CN2CCCC2)N(C(=O)Cc2ccc(Cl)c(Cl)c2)C1`, the IC50 is > 10000 nM.

`O=C(Cc1ccc(Cl)c(Cl)c1)N1CCCCC1CN1CCCO1` (stereo not drawn): the IC50 was determined as 69 nM.

As for `O=C1CC[C@@H](CN2CCCC2)N(C(=O)Cc2ccc(Cl)c(Cl)c2)C1`, the IC50 is 390 nM.

On to `COC(=O)C1=CCCN(CC2CCCCN2C(=O)Cc2ccc(Cl)c(Cl)c2)C1` (stereo not drawn), for which the IC50 is 15 nM.

In turn, `COC(=O)[C@@H]1CCC[C@@H](CN2CCCC2)N1C(=O)Cc1ccc(Cl)c(Cl)c1` gave an IC50 of 110 nM.

As to `NC(=O)[C@H]1CCC[C@@H](CN2CCCC2)N1C(=O)Cc1ccc(Cl)c(Cl)c1`, the IC50 is > 10000 nM.

On to `O=C1CCCN(C(=O)Cc2ccc(Cl)c(Cl)c2)C1CN1CCCC1` (stereo not drawn), for which the IC50 turned out to be 2000 nM.

`O=C(Cc1ccc(Cl)c(Cl)c1)N1CCCCC1CN1CC=CCC1` (stereo not drawn) returned an IC50 of 6.3 nM.

The nature of the next assay: Opioid receptor kappa agonist potency was determined in vitro using rabbit vas deferens(LVD) preparation.
`O=C(Cc1ccc(Cl)c(Cl)c1)N1CCCCC1CN1CCC(O)C1` (stereo not drawn) returned an IC50 of 0.88 nM.

Turning to `COC(=O)/C=C1\CCN(CC2CCCCN2C(=O)Cc2ccc(Cl)c(Cl)c2)C1` (stereo not drawn), the IC50 was 1020 nM. This IC50 lies about 1200-fold higher than the previous one.

For `COC(=O)[C@@H]1CCN(C(=O)Cc2ccc(Cl)c(Cl)c2)[C@H](CN2CCCC2)C1`, the IC50 was found to be 250 nM.

`O=C(Cc1ccc(Cl)c(Cl)c1)N1CCC[C@@H](O)[C@H]1CN1CCCC1` showed an IC50 of 590 nM.

`C=C1CCN(CC2CCCCN2C(=O)Cc2ccc(Cl)c(Cl)c2)C1` (stereo not drawn) had an IC50 of 29 nM.

As for `O=C1CCN(C(=O)Cc2ccc(Cl)c(Cl)c2)C(CN2CCCC2)C1` (stereo not drawn), the IC50 was 46 nM.

As to `C=CCC1(CN2CCCC2)CCCCN1C(=O)Cc1ccc(Cl)c(Cl)c1` (stereo not drawn), the IC50 is > 10000 nM.

As to `O=C(Cc1ccc(Cl)c(Cl)c1)N1CCCCC1CN1CCCCC1` (stereo not drawn), the IC50 came out at 260 nM.

As for `CC1(CN2CCCC2)CCCCN1C(=O)Cc1ccc(Cl)c(Cl)c1` (stereo not drawn), the IC50 was > 10000 nM.

`C[C@H]1CCC[C@@H](CN2CCCC2)N1C(=O)Cc1ccc(Cl)c(Cl)c1` came in with an IC50 of 1.7 nM.

`O=C(Cc1ccc(Cl)c(Cl)c1)N1CCC2(CC1CN1CCCC1)SCCS2` (stereo not drawn) registered an IC50 of 5 nM.

For `O=C(Cc1ccc(Cl)c(Cl)c1)N1CC[C@H](O)C[C@H]1CN1CCCC1`, the IC50 amounted to 1400 nM.
